For 14 compounds, IC50 results are on record in patent US20240116985A1, “STAPLED PEPTIDES AND METHODS THEREOF” (priority 2020, published 2024).

Starred links: 1 amine or outer side, 2 acyl side, 3 side chain; linkers in the order of their positions; H or OH if unused. Positions of bridges follow the written chain, without caps; N, C: chain ends. Non-standard residues stand in square brackets, D forms with d. Residues, ends and D or L forms follow the SMILES beside them. X3 = O=C([C@]1(CC=[*:3])CCCN1[*:1])[*:2]; Bta = N[C@@H](Cc1csc2ccccc12)C(=O)O; tBuAla = CC(C)(C)C[C@H](N)C(=O)O; 3Thi = N[C@@H](Cc1ccsc1)C(=O)O; R5 = C=CCCC[C@@](C)(N)C(=O)O; S5 = C=CCCC[C@](C)(N)C(=O)O; Aib = CC(C)(N)C(=O)O

The experiment deals with T1, full-length beta-Catenin (Uniprot ID P35222) (Homo sapiens, UniProt P35222).
T1 construct: 10 nM full-length beta-Catenin (Uniprot ID P35222)
T1 sequence (P35222 1-781): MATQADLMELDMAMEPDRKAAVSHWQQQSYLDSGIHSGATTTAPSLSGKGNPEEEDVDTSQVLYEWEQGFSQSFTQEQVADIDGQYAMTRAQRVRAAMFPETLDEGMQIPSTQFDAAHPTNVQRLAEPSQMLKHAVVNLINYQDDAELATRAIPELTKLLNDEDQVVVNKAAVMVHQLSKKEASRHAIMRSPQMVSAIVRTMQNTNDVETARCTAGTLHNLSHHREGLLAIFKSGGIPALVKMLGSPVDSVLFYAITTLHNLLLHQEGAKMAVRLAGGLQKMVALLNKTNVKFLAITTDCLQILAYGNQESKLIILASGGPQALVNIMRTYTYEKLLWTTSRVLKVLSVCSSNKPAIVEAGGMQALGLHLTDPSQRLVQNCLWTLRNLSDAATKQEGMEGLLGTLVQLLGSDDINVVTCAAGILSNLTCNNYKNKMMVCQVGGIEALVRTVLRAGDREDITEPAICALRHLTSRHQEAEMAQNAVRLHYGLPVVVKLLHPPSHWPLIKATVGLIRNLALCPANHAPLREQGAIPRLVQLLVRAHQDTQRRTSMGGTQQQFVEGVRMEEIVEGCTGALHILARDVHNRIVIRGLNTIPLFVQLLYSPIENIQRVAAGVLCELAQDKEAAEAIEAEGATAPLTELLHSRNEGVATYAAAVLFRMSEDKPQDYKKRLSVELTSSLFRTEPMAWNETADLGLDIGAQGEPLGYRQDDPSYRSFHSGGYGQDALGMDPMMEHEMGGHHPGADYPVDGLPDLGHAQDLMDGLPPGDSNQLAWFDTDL
In words: Fluorescence polarization IC50 (beta-catenin / 5FAM-TCF4 10-53 competition). In kind it is binding. The following applies: fluorescence polarization; read-out: beta-Catenin FP IC50.
Turning to `CC(=O)N1CCC[C@]12CCCCCCC1(CCCCCCCCOC(=O)N3CC[C@@](C(=O)N[C@@H](Cc4ccsc4)C(=O)N[C@@H](Cc4csc5ccccc45)C(=O)N[C@@H](CC(C)C)C(N)=O)(C3)NC(=O)[C@H](CC(C)C)NC(=O)[C@H](Cc3ccccc3)NC(=O)[C@H](C)NC(=O)[C@H](C)NC(=O)[C@H](CN(CC(=O)O)CC(F)(F)F)NC(=O)[C@H](CC(=O)O)NC1=O)NC(=O)[C@H](CC(C)(C)C)NC(=O)[C@H](CC(=O)O)NC2=O` (stereo partly drawn) [I-1753, Ac-PL3-Asp-Npg-B5-Asp-TfeGA-Ala-Ala-Phe-Leu-PyrS2-3Thi-BztA-Leu-NH2], the IC50 – broadly, the midpoint of a concentration-inhibition curve – worked out at 802 nM.

As for `CC(=O)N1CCC[C@]12CCCCCCC1(CCCCCCCCOC(=O)N3CC[C@@](C(=O)N[C@@H](Cc4ccsc4)C(=O)N[C@@H](Cc4csc5ccccc45)C(=O)N[C@@H](CC(C)C)C(N)=O)(C3)NC(=O)[C@H]([C@@H](C)O)NC(=O)[C@H](Cc3ccccc3)NC(=O)[C@H](C)NC(=O)[C@H](C)NC(=O)[C@H](CN(CC(=O)O)CC(F)(F)F)NC(=O)[C@H](CC(=O)O)NC1=O)NC(=O)[C@H](CC(C)(C)C)NC(=O)[C@H](CC(=O)O)NC2=O` (stereo partly drawn) [I-1754, Ac-PL3-Asp-Npg-B5-Asp-TfeGA-Ala-Ala-Phe-Thr-PyrS2-3Thi-BztA-Leu-NH2], the IC50 was 660 nM.

Take `CC(=O)N1CCC[C@]12CCCCCCC1(CCCCCCCCOC(=O)N3CC[C@@](C(=O)N[C@@H](Cc4ccsc4)C(=O)N[C@@H](Cc4csc5ccccc45)C(=O)N[C@@H](Cc4ccccc4)C(N)=O)(C3)NC(=O)[C@H](CC(C)C)NC(=O)[C@H](Cc3ccccc3)NC(=O)[C@H](C)NC(=O)[C@H](C)NC(=O)[C@H](CN(CC(=O)O)CC(F)(F)F)NC(=O)[C@H](CC(=O)O)NC1=O)NC(=O)[C@H](CC(C)(C)C)NC(=O)[C@H](CC(=O)O)NC2=O` (stereo partly drawn) [I-1755, Ac-PL3-Asp-Npg-B5-Asp-TfeGA-Ala-Ala-Phe-Leu-PyrS2-3Thi-BztA-Phe-NH2]: the IC50 came out at 570 nM.

For the compound `CC(=O)N1CCC[C@]12CCCCCCC1(CCCCCCCCOC(=O)N3CC[C@@](C(=O)N[C@@H](Cc4ccsc4)C(=O)N[C@@H](Cc4csc5ccccc45)C(=O)N[C@@H](Cc4ccccc4)C(N)=O)(C3)NC(=O)[C@H]([C@@H](C)O)NC(=O)[C@H](Cc3ccccc3)NC(=O)[C@H](C)NC(=O)[C@H](C)NC(=O)[C@H](CN(CC(=O)O)CC(F)(F)F)NC(=O)[C@H](CC(=O)O)NC1=O)NC(=O)[C@H](CC(C)(C)C)NC(=O)[C@H](CC(=O)O)NC2=O` (stereo partly drawn) [I-1756, Ac-PL3-Asp-Npg-B5-Asp-TfeGA-Ala-Ala-Phe-Thr-PyrS2-3Thi-BztA-Phe-NH2], the IC50 came to 329 nM.

Turning to `CC(=O)N1CCC[C@]12CCCCCCC1(CCCCCCCCOC(=O)N3CC[C@@](C(=O)N[C@@H](Cc4ccsc4)C(=O)N[C@@H](Cc4csc5ccccc45)C(=O)N[C@H](C(N)=O)C(C)C)(C3)NC(=O)[C@H](CC(C)C)NC(=O)[C@H](Cc3ccccc3)NC(=O)[C@H](C)NC(=O)[C@H](C)NC(=O)[C@H](CN(CC(=O)O)CC(F)(F)F)NC(=O)[C@H](CC(=O)O)NC1=O)NC(=O)[C@H](CC(C)(C)C)NC(=O)[C@H](CC(=O)O)NC2=O` (stereo partly drawn) [I-1757, Ac-PL3-Asp-Npg-B5-Asp-TfeGA-Ala-Ala-Phe-Leu-PyrS2-3Thi-BztA-Val-NH2], the IC50 was found to be 449 nM.

As for `CC(=O)N1CCC[C@]12CCCCCCC1(CCCCCCCCOC(=O)N3CC[C@@](C(=O)N[C@@H](Cc4ccsc4)C(=O)N[C@@H](Cc4csc5ccccc45)C(=O)N[C@H](C(N)=O)C(C)C)(C3)NC(=O)[C@H]([C@@H](C)O)NC(=O)[C@H](Cc3ccccc3)NC(=O)[C@H](C)NC(=O)[C@H](C)NC(=O)[C@H](CN(CC(=O)O)CC(F)(F)F)NC(=O)[C@H](CC(=O)O)NC1=O)NC(=O)[C@H](CC(C)(C)C)NC(=O)[C@H](CC(=O)O)NC2=O` (stereo partly drawn) [I-1758, Ac-PL3-Asp-Npg-B5-Asp-TfeGA-Ala-Ala-Phe-Thr-PyrS2-3Thi-BztA-Val-NH2], the half-maximal inhibitory concentration (IC50) is 235 nM.

For `CC(=O)N1CCC[C@]12CCCCCCC1(CCCCCCCCOC(=O)N3CC[C@@](C(=O)N[C@@H](Cc4ccsc4)C(=O)N[C@@H](Cc4csc5ccccc45)C(=O)N[C@@H](CC(C)C)C(N)=O)(C3)NC(=O)[C@H](CC(C)C)NC(=O)[C@H](Cc3ccccc3)NC(=O)[C@H](C)NC(=O)[C@H](CCCCNC(C)C)NC(=O)[C@H](CN(CC(=O)O)CC(F)(F)F)NC(=O)[C@H](CC(=O)O)NC1=O)NC(=O)[C@H](CC(C)(C)C)NC(=O)[C@H](CC(=O)O)NC2=O` (stereo partly drawn) [I-1765, Ac-PL3-Asp-Npg-B5-Asp-TfeGA-iPrLys-Ala-Phe-Leu-PyrS2-3Thi-BztA-Leu-NH2], the IC50 was determined as 667 nM.

As to `CC(=O)N1CCC[C@]12CCCCCCC1(CCCCCCCCOC(=O)N3CC[C@@](C(=O)N[C@@H](Cc4ccsc4)C(=O)N[C@@H](Cc4csc5ccccc45)C(=O)N[C@@H](CC(C)C)C(N)=O)(C3)NC(=O)[C@H]([C@@H](C)O)NC(=O)[C@H](Cc3ccccc3)NC(=O)[C@H](C)NC(=O)[C@H](CCCCNC(C)C)NC(=O)[C@H](CN(CC(=O)O)CC(F)(F)F)NC(=O)[C@H](CC(=O)O)NC1=O)NC(=O)[C@H](CC(C)(C)C)NC(=O)[C@H](CC(=O)O)NC2=O` (stereo partly drawn) [I-1766, Ac-PL3-Asp-Npg-B5-Asp-TfeGA-iPrLys-Ala-Phe-Thr-PyrS2-3Thi-BztA-Leu-NH2], the IC50 worked out at 267 nM.

Consider `CC(=O)N1CCC[C@]12CCCCCCC1(CCCCCCCCOC(=O)N3CC[C@@](C(=O)N[C@@H](Cc4ccsc4)C(=O)N[C@@H](Cc4csc5ccccc45)C(=O)N[C@@H](Cc4ccccc4)C(N)=O)(C3)NC(=O)[C@H](CC(C)C)NC(=O)[C@H](Cc3ccccc3)NC(=O)[C@H](C)NC(=O)[C@H](CCCCNC(C)C)NC(=O)[C@H](CN(CC(=O)O)CC(F)(F)F)NC(=O)[C@H](CC(=O)O)NC1=O)NC(=O)[C@H](CC(C)(C)C)NC(=O)[C@H](CC(=O)O)NC2=O` (stereo partly drawn) [I-1767, Ac-PL3-Asp-Npg-B5-Asp-TfeGA-iPrLys-Ala-Phe-Leu-PyrS2-3Thi-BztA-Phe-NH2], for which the IC50 turned out to be 327 nM.

Regarding `CC(=O)N1CCC[C@]12CCCCCCC1(CCCCCCCCOC(=O)N3CC[C@@](C(=O)N[C@@H](Cc4ccsc4)C(=O)N[C@@H](Cc4csc5ccccc45)C(=O)N[C@H](C(N)=O)C(C)C)(C3)NC(=O)[C@H](CC(C)C)NC(=O)[C@H](Cc3ccccc3)NC(=O)[C@H](C)NC(=O)[C@H](CCCCNC(C)C)NC(=O)[C@H](CN(CC(=O)O)CC(F)(F)F)NC(=O)[C@H](CC(=O)O)NC1=O)NC(=O)[C@H](CC(C)(C)C)NC(=O)[C@H](CC(=O)O)NC2=O` (stereo partly drawn) [I-1769, Ac-PL3-Asp-Npg-B5-Asp-TfeGA-iPrLys-Ala-Phe-Leu-PyrS2-3Thi-BztA-Val-NH2], the IC50 is 419 nM.

For the compound `CC(=O)N1CCC[C@]12CC=CCCCC1(CCCC=CCCCOC(=O)N3CC[C@@](C(=O)N[C@@H](Cc4ccsc4)C(=O)N[C@@H](Cc4csc5ccccc45)C(=O)N[C@@H](CCC(N)=O)C(N)=O)(C3)NC(=O)[C@H](CC(C)C)NC(=O)[C@H](Cc3ccccc3)NC(=O)[C@H](C)NC(=O)[C@H](C)NC(=O)[C@H](CN(CC(=O)O)CC(F)(F)F)NC(=O)[C@H](C(C)(C)C(=O)O)NC1=O)NC(=O)[C@H](CC(C)(C)C)NC(=O)[C@H](CC(=O)O)NC2=O` (stereo partly drawn) [I-1771, Ac-PL3-Asp-Npg-B5-bMe2Asp-TfeGA-Ala-Ala-Phe-Leu-PyrS2-3Thi-BztA-Gln-NH2], the IC50 stood at 209 nM.

As for `CC(=O)N1CCC[C@]12CC=CCCCC1(CCCC=CCCCOC(=O)N3CC[C@@](C(=O)N[C@@H](Cc4ccsc4)C(=O)N[C@@H](Cc4csc5ccccc45)C(=O)N[C@@H](CCC(N)=O)C(N)=O)(C3)NC(=O)[C@H](CC(C)C)NC(=O)[C@H](Cc3ccccc3)NC(=O)[C@H](C)NC(=O)[C@H](C)NC(=O)[C@H](CN(CC(=O)O)CC(F)(F)F)NC(=O)[C@H](CC(=O)O)NC1=O)NC(=O)[C@H](CC1CCCCC1)NC(=O)[C@H](CC(=O)O)NC2=O` (stereo partly drawn) [I-1775, Ac-PL3-Asp-Cha-B5-Asp-TfeGA-Ala-Ala-Phe-Leu-PyrS2-3Thi-BztA-Gln-NH2], the IC50 turned out to be 15 nM.

For the compound `CC(=O)N1CCC[C@]12CC=CCCC[C@@](C)(C(=O)N[C@@H](CC(=O)O)C(=O)N[C@@H](CC(=O)O)C(=O)N[C@@H](C)C(=O)N[C@@H](C)C(=O)N[C@@H](Cc1ccccc1)C(=O)N[C@]1(C)CCCC=CCCC[C@@](C)(C(=O)N[C@@H](C)C(N)=O)NC(=O)[C@H](Cc3csc4ccccc34)NC(=O)[C@H](Cc3ccsc3)NC(=O)[C@H](C)NC1=O)NC(=O)[C@H](CC(C)(C)C)NC(=O)[C@H](CC(=O)O)NC2=O` [I-1778, Ac-PL3-Asp-Npg-S5-Asp-Asp-Ala-Ala-Phe-R5-Ala-3Thi-BztA-S5-Ala-NH2] (Ac-[X3]D[tBuAla][S5]DDAAF[R5]A[3Thi][Bta][S5]A-NH2; staple 1-4, 10-14 (inferred)), the IC50 worked out at 2080 nM.

As for `CC(=O)N1CCC[C@]12CC=CCCC[C@@](C)(C(=O)N[C@@H](CC(=O)O)C(=O)N[C@@H](CC(=O)O)C(=O)NC(C)(C)C(=O)N[C@@H](C)C(=O)N[C@@H](Cc1ccccc1)C(=O)N[C@]1(C)CCCC=CCCC[C@@](C)(C(=O)N[C@@H](C)C(N)=O)NC(=O)[C@H](Cc3csc4ccccc34)NC(=O)[C@H](Cc3ccsc3)NC(=O)[C@H](C)NC1=O)NC(=O)[C@H](CC(C)(C)C)NC(=O)[C@H](CC(=O)O)NC2=O` [I-1780, Ac-PL3-Asp-Npg-S5-Asp-Asp-Aib-Ala-Phe-R5-Ala-3Thi-BztA-S5-Ala-NH2] (Ac-[X3]D[tBuAla][S5]DD[Aib]AF[R5]A[3Thi][Bta][S5]A-NH2; staple 1-4, 10-14 (inferred)), the IC50 came out at 4190 nM.
